US12312292B2, “Long chain alkyl esteramine lipid compound, preparation method therefor and application thereof in nucleic acid delivery” (RinuaGene Biotechnology Co., Ltd., priority 2022, dated 2025)

How the values were obtained:
luciferase mRNA = assay: Detection of reporter gene (luciferase mRNA) expression in mice in vivo; set-up: species or system BALB/c female mice; conditions: LNP-delivered luciferase mRNA, quadriceps muscle injection, IVIS 24 h after injection; dose (5 or 14 μg mRNA) not given
Experimental: The prepared LNP-encapsulated mRNA solution was diluted with PBS buffer to obtain the solution for injection. BALB/c female mice at about 20 g were injected with injection solution at the quadriceps muscle site of mice with an insulin syringe, and each mouse was injected with 50 μL. Two doses were designed: one dose of “5 μg mRNA per 50 μL of injection solution” and the other dose of “14 μg mRNA per 50 μL of injection solution”. BALB/c female mice at about 20 g are injected with PBS buffer at the quadriceps muscle site of mice with an insulin syringe, and each mouse was injected with 50 μL.
After the mice were injected for 24 h, in vivo expression of Luciferase was detected with Perkinelmer's IVIS. The substrate was D-luciferin Sodium salt (GOLDBIO, LUCNA-1G), which was formulated into a concentration of 15 mg/mL with normal saline, filtered and sterilized with a 0.22 μm filter membrane, and stored at −20° C. in aliquots protected from light. Before imaging, each mouse at about 20 g was intraperitoneally injected with 200 μL of substrate solution for 10-20 minutes, and then was anesthetized with isoflurane gas and placed prone on the imaging plate to detect the fluorescence of the animal in vivo, and the results are shown in Table 2.

BALB/c female mice = assay: Acute toxicity analysis of lipid molecules (cationic lipid LNP) in BALB/c female mice; conditions: blood 24 h after injection, Ave(SD)
[1] = In vivo expression distribution analysis of delivered luciferase mRNA (RT-PCR in tissues); set-up: species or system C57BL/6J mice; conditions: single intramuscular injection 50 μg; for Exposure in tissues and organs, from high to low: delivered luciferase mRNA, 2 h-336 h, RT-PCR
Experimental: In order to investigate the distribution features of lipid-delivering mRNA in vivo, we analyzed the distribution features of the reporter luciferase mRNA of the compounds of the present invention in C57BL/6J mice after administration by a single intramuscular injection. The experimental 10 C57BL/6J mice were enrolled, male and female, each administered 50 μg, with SM102 as the control.
Animals in the negative control group were collected at 2 h and 336 h after administration, and animals in the test group were collected at 2 h, 6 h, 24 h, 48 h, 72 h, 120 h, 168 h, and 336 h after administration whole blood, bone marrow, liver, spleen, heart, kidney, inguinal lymph nodes, mesenteric lymph nodes, spleen, brain, stomach, small intestine, non-injection site muscle, injection site muscle tissue, etc. The RNA content in the samples at each time point was detected by RT-PCR, and the lower limit of quantification of the method was […] to reflect the distribution features in C57BL/6J mice.

[2] = mRNA-LNP encapsulation: particle size, PDI and encapsulation rate of LNP; type: physicochemical
Experimental: The mRNA stock solution was dispersed in 20 mM acetic acid solution (pH 5.0) to a final concentration of 200 μg/mL (aqueous phase). A fat mixture (oil phase) was obtained by mixing under a molar ratio of the exemplary compound:cholesterol:DSPC:DMG-PEG2000=50:38.5:10:1.5. The flow rate of the aqueous phase and the oil phase was controlled by T mixed flow, and the mRNA and lipid mixture were mixed under the volume ratio of 3:1 to obtain LNP-encapsulated mRNA. The encapsulated LNP was diluted 10-fold with buffer, then concentrated by ultrafiltration, and the dilute was displaced, and finally the LNP was concentrated to mRNA being 200 µg/mL, and the pH of the LNP was adjusted to about 7-8. Finally, the Ribogreen kit and 10% OTG were used as demulsifiers to detect the total content of mRNA and the content of […], and the encapsulation rate of LNP was calculated. The LNP final product was diluted 10-fold with diluent, added 1 mL into a particle size cell, and placed on the Malvern ZetaSizer instrument to detect the particle size and PDI of LNP.

[3] = LNP of compound:cholesterol:DSPC:DMG-PEG2000=50:38.5:10:1.5 with mRNA, Malvern ZetaSizer

Row | Compound | Average fluorescence intensity (luciferase mRNA) [P/s/cm^2/sr] | Alanine aminotransferase (BALB/c female mice; high dose group, 150 μg LNP/pc) [U/L] | Alkaline phosphatase (ALP) (BALB/c female mice; high dose group, 150 μg LNP/pc) [U/L] | Aspartate aminotransferase (BALB/c female mice; high dose group, 150 μg LNP/pc) [U/L] | Creatinine (BALB/c female mice; high dose group, 150 μg LNP/pc) [µmol/L] | γ-Glutamyltransferase (GGT) (BALB/c female mice; high dose group, 150 μg LNP/pc) | Alanine aminotransferase (BALB/c female mice; low dose group, 50 μg/pc) | Alkaline phosphatase (ALP) (BALB/c female mice; low dose group, 50 μg/pc) [U/L] | Aspartate aminotransferase (BALB/c female mice; low dose group, 50 μg/pc) [U/L] | Creatinine (BALB/c female mice; low dose group, 50 μg/pc) [µmol/L] | γ-Glutamyltransferase (GGT) (BALB/c female mice; low dose group, 50 μg/pc) | Exposure in tissues and organs, from high to low [1] | also measured
1 | CCCCCCCCCCCOC(=O)CCCCCN(CCCCCCCC(=O)OC(CCCCCCCC)CCCCCCCC)CC1(O)CC1 [Example 13] | 2.78E+05 | 39.99 | 109.84 | 126.77 | 12.4 | 0.18 (0.18) U/L | 36.19 (3.01) U/L | 111.74 | 110.27 | 13.5 | 0.38 (0.41) U/L | inguinal lymph nodes, injection site muscles, non-injection site muscles, whole blood, spleen, bone marrow, mesenteric lymph nodes, heart, liver, kidneys, stomach, small intestine and brain | Total bilirubin (TBIL) (BALB/c female mice; high dose group, 150 μg LNP/pc): 1.34; Total bilirubin (TBIL) (BALB/c female mice; low dose group, 50 μg/pc): 1.18 (0.23); Level (distribution) of delivered mRNA in the stomach ([1]; compared with SM-102): relatively higher level
2 | CCCCCCCCCCCOC(=O)CCCCCN(CCCCCCCC(=O)OC(CCCCCCCC)CCCCCCCC)CC1(CO)CCC1 [Example 15] | 1.57E+03 |  |  |  |  |  |  |  |  |  |  |  | 
3 | CCCCCCCCCCCOC(=O)CCCCCN(CCO)CCCCCCCC(=O)OC(CCCCCCCC)CCCCCCCC [SM102, reference compound] | 1.112E+06 | 56.18 | 116.88 | 145.96 | 12.6 | 0.32 (0.22) U/L | 36.04 (2.93) U/L | 131.7 | 121.4 | 14.6 | 0.41 (0.24) U/L | inguinal lymph nodes, injection site muscles, whole blood, non-injection site muscles, spleen, bone marrow, heart, mesenteric lymph nodes, liver, kidney, small intestine, and brain | PDI [2, 3]: 0.1296; Particle size (nm) [2, 3]: 92.16 nm; Encapsulation rate ([2]; LNP-encapsulated mRNA, Ribogreen kit): 95%
4 | CCCCCCCCCCCOC(=O)CCCCCN(CCCCCCCCCO)CCCCCCCC(=O)OC(CCCCCCCC)CCCCCCCC [Example 5] | 5.67E+05 |  |  |  |  |  |  |  |  |  |  |  | 
5 | CCCCCCCCCCCOC(=O)CCCCCN(CCCCCCCCO)CCCCCCCC(=O)OC(CCCCCCCC)CCCCCCCC [Example 4] | 5.47E+05 |  |  |  |  |  |  |  |  |  |  |  | 
6 | CCCCCCCCCCCOC(=O)CCCCCN(CCCCCCCC(=O)OC(CCCCCCCC)CCCCCCCC)CC(F)(F)CO [Example 11] | 1.39E+03 |  |  |  |  |  |  |  |  |  |  |  | 
7 | CCCCCCCCCCCOC(=O)CCCCCN(CCCCCO)CCCCCCCC(=O)OC(CCCCCCCC)CCCCCCCC [Example 1] | 1.218E+06 | 38.16 | 112.7 | 125.26 | 12.4 | 0.12 (0.12) U/L | 33.46 (3.54) U/L | 114.38 | 109.92 | 13.8 | 0.22 (0.33) U/L | injection site muscle, inguinal lymph nodes, whole blood, spleen, non-injection site muscle, bone marrow, heart, liver, mesenteric lymph nodes, kidney, small intestine and brain | Total bilirubin (TBIL) (BALB/c female mice; high dose group, 150 μg LNP/pc): 1.56; Total bilirubin (TBIL) (BALB/c female mice; low dose group, 50 μg/pc): 1.18 (0.13)
8 | CCCCCCCCCCCOC(=O)CCCCCN(CCCCCCCC(=O)OC(CCCCCCCC)CCCCCCCC)CC(C)(C)CO [Example 10] | 7.37E+03 |  |  |  |  |  |  |  |  |  |  |  | 
9 | CCCCCCCCCCCOC(=O)CCCCCN(CCCCCCCC(=O)OC(CCCCCCCC)CCCCCCCC)C1(CO)CC1 [Example 14] | 1.91E+03 |  |  |  |  |  |  |  |  |  |  |  | 
10 | CCCCCCCCCCCOC(=O)CCCCCN(CCCCCCCCCCO)CCCCCCCC(=O)OC(CCCCCCCC)CCCCCCCC [Example 6] | 5.08E+05 |  |  |  |  |  |  |  |  |  |  |  | 
11 | CCCCCCCCCCCOC(=O)CCCCCN(CCCCCCCC(=O)OC(CCCCCCCC)CCCCCCCC)C(C)CCO (stereo not shown) [Example 9] | 3.74E+05 | 37.25 | 116.9 | 128.26 | 12.1 | 0.18 (0.15) U/L | 35.44 (3.67) U/L | 115.29 | 107.55 | 14.2 | 0.24 (0.37) U/L | inguinal lymph nodes, injection site muscles, non-injection site muscles, whole blood, spleen, bone marrow, mesenteric lymph nodes, heart, liver, kidney, small intestine, stomach and brain | Total bilirubin (TBIL) (BALB/c female mice; high dose group, 150 μg LNP/pc): 1.43; Total bilirubin (TBIL) (BALB/c female mice; low dose group, 50 μg/pc): 1.21 (0.19); Level of delivered mRNA in the small intestine ([1]; compared with SM-102): relatively higher level
12 | CCCCCCCCCCCOC(=O)CCCCCN(CCCCCCCC(=O)OC(CCCCCCCC)CCCCCCCC)CC1(CO)CC1 [Example 12] | 3.62E+03 |  |  |  |  |  |  |  |  |  |  |  | 
13 | CCCCCCCCCCCOC(=O)CCCCCN(CCCCCCCO)CCCCCCCC(=O)OC(CCCCCCCC)CCCCCCCC [Example 3] | 8.55E+05 |  |  |  |  |  |  |  |  |  |  |  | 
14 | CCCCCCCCCCCOC(=O)CCCCCN(CCCCCCCCCCCCO)CCCCCCCC(=O)OC(CCCCCCCC)CCCCCCCC [Example 7] | 4.73E+05 | 39.92 | 103.8 | 138.44 | 12.2 | 0.22 (0.04) U/L | 33.56 (5.17) U/L | 107.58 | 109.54 | 13.6 | 0.06 (0.12) U/L | injection site muscle, inguinal lymph nodes, whole blood, spleen, non-injection site muscle, bone marrow, heart, liver, mesenteric lymph nodes, kidney, small intestine and brain | Total bilirubin (TBIL) (BALB/c female mice; high dose group, 150 μg LNP/pc): 1.35; Total bilirubin (TBIL) (BALB/c female mice; low dose group, 50 μg/pc): 1.18 (0.16); Level (distribution) of delivered mRNA in the stomach ([1]; compared with SM-102): higher distribution; Level (distribution) of delivered mRNA in the stomach ([1]; compared with SM-102, listed as compound 7): relatively higher level
15 | CCCCCCCCCCCOC(=O)CCCCCN(CCCCCCCC(=O)OC(CCCCCCCC)CCCCCCCC)C(C)CCCO (stereo not shown) [Example 8] | 1.17E+03 |  |  |  |  |  |  |  |  |  |  |  | 
